Measured values: ChEMBL document CHEMBL3808333, “Design, synthesis and anticonvulsant activity of new hybrid compounds derived from N-phenyl-2-(2,5-dioxopyrrolidin-1-yl)-propanamides and -butanamides” (Bioorg Med Chem, 2016)
Calls of active or inactive are those of the source. No cut-off for these calls is given here.

Tests used:
Mus musculus [1] = experiment: Anticonvulsant activity in albino Swiss mouse assessed as protection against electrically-induced seizure pretreated for 2 hrs at 100 mg/kg, ip by 6Hz psychomotor seizure test; type: functional, organism-based
Mus musculus [2] = species on record: Mus musculus; experiment: Anticonvulsant activity in albino Swiss mouse by maximal electroshock seizure test; type: functional
Mus musculus [3] = species on record: Mus musculus; experiment: Anticonvulsant activity in albino Swiss mouse assessed as protection against electrically-induced seizure by 6Hz psychomotor seizure test; type: functional
[4] = Acute neurotoxicity in albino Swiss mouse pretreated for 2 hrs by rotorod test; type: toxicity, organism-based; conditions: in vivo
[5] = Protective index, ratio of TD50 for acute neurotoxicity in albino Swiss mouse to ED50 for anticonvulsant activity in albino Swiss mouse by 6Hz psychomotor seizure test; type: toxicity, organism-based; conditions: in vivo, read-out: Ratio TD50/ED50
Mus musculus [6] = experiment: Anticonvulsant activity in albino Swiss mouse assessed as protection against maximal electroshock-induced seizures pretreated for 2 hrs at 100 mg/kg, ip by maximal electroshock seizure test; type: functional, organism-based
Mus musculus [7] = experiment: Anticonvulsant activity in albino Swiss mouse assessed as protection against electrically-induced seizure pretreated for 0.5 hrs at 100 mg/kg, ip by 6Hz psychomotor seizure test; type: functional
Mus musculus [8] = experiment: Anticonvulsant activity against albino Swiss mouse seizure model assessed as time to peak effect at 100 mg/kg, ip; type: functional
Mus musculus [9] = experiment: Acute neurotoxicity in albino Swiss mouse pretreated for 2 hrs at 100 mg/kg, ip by rotorod test; type: toxicity, organism-based; conditions: in vivo
Mus musculus [10] = experiment: Anticonvulsant activity in albino Swiss mouse assessed as reduction in clonic seizures pretreated for 0.5 hrs at 100 mg/kg, ip measured after 30 mins by subcutaneous pentylenetetrazole seizure test; type: functional; parameters: scale not given: the % may be the effect or the level left
Mus musculus [11] = experiment: Anticonvulsant activity in albino Swiss mouse measured after 30 mins by subcutaneous pentylenetetrazole seizure test; type: functional; conditions: sc, 0.5 h
Mus musculus [12] = experiment: Anticonvulsant activity in albino Swiss mouse assessed as protection against maximal electroshock-induced seizures pretreated for 0.5 hrs at 100 mg/kg, ip by maximal electroshock seizure test; type: functional
[13] = Protective index, ratio of TD50 for acute neurotoxicity in albino Swiss mouse to ED50 for anticonvulsant activity in albino Swiss mouse by subcutaneous pentylenetetrazole seizure test; type: toxicity, organism-based; conditions: in vivo, read-out: Ratio TD50/ED50
Rattus norvegicus [14] = species on record: Rattus norvegicus; experiment: Displacement of [3H]D888 from L-type calcium channel verapamil binding site in rat cerebral cortex synaptoneurosomes at 100 uM measured after 120 mins by scintillation counting method; type: tissue-based
Rattus norvegicus [15] = species on record: Rattus norvegicus; experiment: Displacement of [3H]Batrachotoxinin from voltage-sensitive sodium channel site 2 in rat cerebral cortex synaptoneurosomes at 100 uM measured after 60 mins by scintillation counting method; type: tissue-based
[16] = Protective index, ratio of TD50 for acute neurotoxicity in albino Swiss mouse to ED50 for anticonvulsant activity in albino Swiss mouse by maximal electroshock seizure test; type: toxicity, organism-based; conditions: in vivo, read-out: Ratio TD50/ED50
Rattus norvegicus [17] = species on record: Rattus norvegicus; experiment: Displacement of [3H]Batrachotoxinin from voltage-sensitive sodium channel site 2 in rat cerebral cortex synaptoneurosomes at 200 uM measured after 60 mins by scintillation counting method; type: tissue-based
Rattus norvegicus [18] = species on record: Rattus norvegicus; experiment: Displacement of [3H]diltiazem from L-type calcium channel diltiazem binding site in rat cerebral cortex synaptoneurosomes at 200 uM measured after 120 mins by scintillation counting method; type: tissue-based
Rattus norvegicus [19] = species on record: Rattus norvegicus; experiment: Displacement of [3H]D888 from L-type calcium channel verapamil binding site in rat cerebral cortex synaptoneurosomes at 200 uM measured after 120 mins by scintillation counting method; type: tissue-based
Mus musculus [20] = experiment: Anticonvulsant activity in albino Swiss mouse assessed as reduction in clonic seizures pretreated for 2 hrs at 100 mg/kg, ip measured after 30 mins by subcutaneous pentylenetetrazole seizure test; type: functional, organism-based
Rattus norvegicus [21] = species on record: Rattus norvegicus; experiment: Displacement of [3H]nitrendipine from L-type calcium channel dihydropyridine site in rat cerebral cortex synaptoneurosomes at 100 uM measured after 90 mins by scintillation counting method; type: tissue-based
Rattus norvegicus [22] = species on record: Rattus norvegicus; experiment: Displacement of [125I]omega-Conotoxin GVIA from N-type calcium channel in rat cerebral cortex synaptoneurosomes at 200 uM measured after 30 mins by scintillation counting method; type: tissue-based
Rattus norvegicus [23] = species on record: Rattus norvegicus; experiment: Displacement of [3H]nitrendipine from L-type calcium channel dihydropyridine site in rat cerebral cortex synaptoneurosomes at 200 uM measured after 90 mins by scintillation counting method; type: tissue-based
Rattus norvegicus [24] = species on record: Rattus norvegicus; experiment: Displacement of [3H]diltiazem from L-type calcium channel diltiazem binding site in rat cerebral cortex synaptoneurosomes at 100 uM measured after 120 mins by scintillation counting method; type: tissue-based
Rattus norvegicus [25] = species on record: Rattus norvegicus; experiment: Displacement of [125I]omega-Conotoxin GVIA from N-type calcium channel in rat cerebral cortex synaptoneurosomes at 100 uM measured after 30 mins by scintillation counting method; type: tissue-based
Mus musculus [26] = experiment: Acute neurotoxicity in albino Swiss mouse pretreated for 0.5 hrs at 100 mg/kg, ip by rotorod test; type: toxicity, organism-based; conditions: in vivo
Rattus norvegicus [27] = species on record: Rattus norvegicus; experiment: Displacement of [3H]Batrachotoxinin from voltage-sensitive sodium channel site 2 in rat cerebral cortex synaptoneurosomes at 500 uM measured after 60 mins by scintillation counting method; type: tissue-based

CCC(C(=O)Nc1cccc(Cl)c1)N1C(=O)CCC1=O (stereo not given)
Activity (Mus musculus [1]): inactive
ED50 (Mus musculus [2]): > 130 mg/kg
ED50 (Mus musculus [3]): 43.4 mg/kg
TD50 at 2 h [4]: > 500 mg/kg
selectivity ratio [5]: > 11.5
Activity (Mus musculus [6]): inactive
Activity (Mus musculus [7]): 75%
Time (Mus musculus [8]): 0.5 h
Activity (Mus musculus [9]): Non-toxic
Activity (Mus musculus [10]): 50%
ED50 (Mus musculus [11]): > 130 mg/kg
Activity (Mus musculus [12]): 75%

CC1CC(=O)N(C(C)C(=O)Nc2ccccc2)C1=O (stereo not given)
Activity (Mus musculus [6]): inactive

CCC(C(=O)Nc1ccc(C(F)(F)F)cc1)N1C(=O)CCC1=O (stereo not given)
Activity (Mus musculus [6]): inactive
Activity (Mus musculus [12]): inactive

CC(C(=O)Nc1ccc(C(F)(F)F)cc1)N1C(=O)CCC1=O (stereo not given)
Activity (Mus musculus [6]): inactive

COC[C@@H](NC(C)=O)C(=O)NCc1ccccc1 [LACOSAMIDE]
ED50 (Mus musculus [2]): 9.4 mg/kg
ED50 (Mus musculus [3]): 6.4 mg/kg
selectivity ratio [5]: 5.3
Time (Mus musculus [8]): 0.5 h
ED50 (Mus musculus [11]): > 500 mg/kg

CC1CC(=O)N(C(C)C(=O)Nc2cccc(C(F)(F)F)c2)C1=O (stereo not given)
Activity (Mus musculus [6]): inactive
Activity (Mus musculus [12]): inactive

CC(C(=O)Nc1ccccc1)N1C(=O)CCC1=O (racemic)
selectivity ratio [13]: 4.4
inhibition (Rattus norvegicus [14]): -0.8%
inhibition (Rattus norvegicus [15]): 26.4%
ED50 (Mus musculus [2]): 96.9 mg/kg
selectivity ratio [16]: 3.5
ED50 (Mus musculus [3]): 44.3 mg/kg
TD50 at 2 h [4]: 336 mg/kg
selectivity ratio [5]: 7.6
Activity (Mus musculus [7]): Active
Time (Mus musculus [8]): 0.5 h
inhibition (Rattus norvegicus [17]): 55.2%
inhibition (Rattus norvegicus [18]): 43.7%
Activity (Mus musculus [10]): Active
inhibition (Rattus norvegicus [19]): -3.2%
Activity (Mus musculus [20]): inactive
inhibition (Rattus norvegicus [21]): -7.7%
inhibition (Rattus norvegicus [22]): 1.3%
ED50 (Mus musculus [11]): 75.4 mg/kg
Activity (Mus musculus [12]): 50%
inhibition (Rattus norvegicus [23]): 2.9%
inhibition (Rattus norvegicus [24]): 10.8%
inhibition (Rattus norvegicus [25]): -6.5%

CCC(C(=O)Nc1ccc(F)cc1)N1C(=O)CCC1=O (stereo not given)
Activity (Mus musculus [6]): inactive
Activity (Mus musculus [12]): inactive

CC(C(=O)Nc1cccc(Cl)c1)N1C(=O)CCC1=O (stereo not given)
selectivity ratio [13]: > 5.7
Activity (Mus musculus [1]): inactive
ED50 (Mus musculus [2]): 105 mg/kg
selectivity ratio [16]: > 4.8
ED50 (Mus musculus [3]): 74.5 mg/kg
TD50 at 2 h [4]: > 500 mg/kg
selectivity ratio [5]: > 6.7
Activity (Mus musculus [6]): inactive
Activity (Mus musculus [7]): 75%
Time (Mus musculus [8]): 0.5 h
Activity (Mus musculus [10]): 75%
Activity (Mus musculus [26]): 50%
ED50 (Mus musculus [11]): 87.7 mg/kg
Activity (Mus musculus [12]): 75%

NC(=O)N1c2ccccc2C=Cc2ccccc21
inhibition (Rattus norvegicus [14]): 8.8%
inhibition (Rattus norvegicus [27]): 33.6%
inhibition (Rattus norvegicus [18]): 7.3%
inhibition (Rattus norvegicus [19]): 7.5%
inhibition (Rattus norvegicus [21]): 2.6%
inhibition (Rattus norvegicus [22]): 1.9%
inhibition (Rattus norvegicus [23]): 3.6%
inhibition (Rattus norvegicus [24]): 1.1%
inhibition (Rattus norvegicus [25]): -2.9%

CC1CC(=O)N(C(C)C(=O)Nc2ccc(F)cc2)C1=O (stereo not given)
Activity (Mus musculus [6]): inactive
Activity (Mus musculus [12]): inactive

CC(C(=O)Nc1ccc(F)cc1)N1C(=O)CCC1=O (stereo not given)
Activity (Mus musculus [6]): inactive
Activity (Mus musculus [12]): inactive

CCC1(C)CC(=O)NC1=O (stereo not given) [ETHOSUXIMIDE]
selectivity ratio [13]: 4.9
ED50 (Mus musculus [2]): > 500 mg/kg
ED50 (Mus musculus [3]): > 200 mg/kg
Time (Mus musculus [8]): 0.5 h
ED50 (Mus musculus [11]): 148 mg/kg

CCC(C(=O)Nc1ccc(Cl)cc1)N1C(=O)CCC1=O (stereo not given)
Activity (Mus musculus [6]): inactive
Activity (Mus musculus [12]): inactive

CC1CC(=O)N(C(C)C(=O)Nc2cccc(F)c2)C1=O (stereo not given)
Activity (Mus musculus [6]): inactive

CC[C@@H](C(N)=O)N1CCCC1=O
ED50 (Mus musculus [2]): > 500 mg/kg
TD50 at 2 h [4]: > 500 mg/kg
Time (Mus musculus [8]): 1 h
ED50 (Mus musculus [11]): > 500 mg/kg

CC(C(=O)Nc1cccc(F)c1)N1C(=O)CCC1=O (stereo not given)
Activity (Mus musculus [6]): inactive

CC1CC(=O)N(C(C)C(=O)Nc2cccc(Cl)c2)C1=O (stereo not given)
selectivity ratio [13]: 4.8
ED50 (Mus musculus [2]): 80.6 mg/kg
selectivity ratio [16]: 3.5
ED50 (Mus musculus [3]): 88.2 mg/kg
TD50 at 2 h [4]: 279 mg/kg
selectivity ratio [5]: 3.2
Activity (Mus musculus [7]): 75%
Time (Mus musculus [8]): 0.5 h
Activity (Mus musculus [9]): Non-toxic
Activity (Mus musculus [10]): 75%
Activity (Mus musculus [20]): inactive
Activity (Mus musculus [26]): Non-toxic
ED50 (Mus musculus [11]): 58.4 mg/kg
Activity (Mus musculus [12]): 75%

CCC(C(=O)Nc1cccc(C(F)(F)F)c1)N1C(=O)CCC1=O (stereo not given)
Activity (Mus musculus [6]): inactive
Activity (Mus musculus [12]): inactive

CCCC(CCC)C(=O)O [VALPROIC ACID]
Time (Mus musculus [8]): 0.5 h

CC1CC(=O)N(C(C)C(=O)Nc2ccc(Cl)cc2)C1=O (stereo not given)
Activity (Mus musculus [6]): inactive

CC(C(=O)Nc1ccc(Cl)cc1)N1C(=O)CCC1=O (stereo not given)
Activity (Mus musculus [12]): inactive

CCC(C(=O)Nc1cccc(F)c1)N1C(=O)CCC1=O (stereo not given)
Activity (Mus musculus [1]): inactive
ED50 (Mus musculus [2]): 121 mg/kg
selectivity ratio [16]: 2.9
ED50 (Mus musculus [3]): 41.4 mg/kg
TD50 at 2 h [4]: 346 mg/kg
selectivity ratio [5]: 8.4
Activity (Mus musculus [6]): inactive
Activity (Mus musculus [7]): Active
Time (Mus musculus [8]): 0.5 h
Activity (Mus musculus [9]): Non-toxic
Activity (Mus musculus [12]): 75%

CC(C(=O)Nc1cccc(C(F)(F)F)c1)N1C(=O)CCC1=O (stereo not given)
Activity (Mus musculus [12]): inactive

CCC(C(=O)Nc1ccccc1)N1C(=O)CCC1=O (stereo not given)
selectivity ratio [13]: 5.3
Activity (Mus musculus [1]): inactive
ED50 (Mus musculus [2]): 116 mg/kg
selectivity ratio [16]: 3.4
ED50 (Mus musculus [3]): 69.3 mg/kg
TD50 at 2 h [4]: 398 mg/kg
selectivity ratio [5]: 5.7
Activity (Mus musculus [7]): Active
Time (Mus musculus [8]): 0.5 h
Activity (Mus musculus [9]): Non-toxic
Activity (Mus musculus [10]): 75%
Activity (Mus musculus [20]): inactive
Activity (Mus musculus [26]): Non-toxic
ED50 (Mus musculus [11]): 75.4 mg/kg
Activity (Mus musculus [12]): 75%

CC1CC(=O)N(C(C)C(=O)Nc2ccc(C(F)(F)F)cc2)C1=O (stereo not given)
Activity (Mus musculus [6]): inactive
Activity (Mus musculus [12]): inactive
